Publication PMC9508125, “The evolutionary advantage of an aromatic clamp in plant family 3 glycoside exo-hydrolases” (Nature Communications, 2022)

Key:
[1] = molecular target: Native HvExoI (Hordeum vulgare, UniProt Q9XEI3); experiment: Inhibition by thio-analogues using the 4NP-Glc substrate; assay type: biochemical; conditions: for ΔG: calculated according to ∆G = -RT ln [1/Ki]; for Ki: apparent inhibition constant, 4NP-Glc substrate
Procedure: (§1) Dependency of activities of WT and mutant HvExoI on pH (McIlvaine buffers in the pH range of 3.5–8.5 at 30 °C) and temperature (100 mM sodium acetate buffer, pH 5.25, temperature range 0–80 °C, 15 min incubations) were determined using 0.2% (w/v) 4NP-Glc[21],[59]. Relative rates of hydrolysis of β-linked poly-, oligosaccharides, and aryl-glucosides were determined using near-homogenous HvExoI at 50 pmoles. […] Kinetic parameters were calculated from the analyses of Michaelis-Menten plots with Grafit 7.0.3[62] and processed by a proportional weighted fit, using nonlinear regression. The relative rates of hydrolysis, kinetic, and inhibition data were rounded to one or two decimal points (Supplementary Tables 2–4).

[2] = molecular target: T1, WT HvExoI (Hordeum vulgare, UniProt Q9XEI3); experiment: as above; assay type: biochemical; conditions: for ΔG: calculated according to ∆G = -RT ln [1/Ki]; for type of inhibition: WT HvExoI
Procedure: as §1

[3] = system: Recombinant HvExoI W286Y; assay type: biochemical, Hordeum vulgare; conditions: calculated according to ∆G = -RT ln [1/Ki]
Procedure: as §1

[4] = system: Recombinant HvExoI W286F; experiment: Inhibition by thio-analogues using the 4NP-Glc substrate; assay type: biochemical, Hordeum vulgare; conditions: calculated according to ∆G = -RT ln [1/Ki]
Procedure: as §1

[5] = system: Recombinant HvExoI W434A; experiment: as above; assay type: biochemical, Hordeum vulgare; conditions: calculated according to ∆G = -RT ln [1/Ki]
Procedure: as §1

[6] = system: Recombinant HvExoI W434F; experiment: as above; assay type: biochemical, Hordeum vulgare; conditions: for ΔG: calculated according to ∆G = -RT ln [1/Ki]
Procedure: as §1

[7] = system: Recombinant HvExoI W434H; experiment: as above; assay type: biochemical, Hordeum vulgare; conditions: for ΔG: calculated according to ∆G = -RT ln [1/Ki]
Procedure: as §1

[8] = system: Recombinant HvExoI W434Y; experiment: as above; assay type: biochemical, Hordeum vulgare; conditions: calculated according to ∆G = -RT ln [1/Ki]
Procedure: as §1

[9] = molecular target: T2, HvExoI W434H mutant (Hordeum vulgare, UniProt Q9XEI3, W459H); experiment: Relative rates of hydrolysis of poly-, oligosaccharides and aryl-glycosides; assay type: biochemical; conditions: substance is the substrate
T2 sequence (Q9XEI3 26-630 W459H): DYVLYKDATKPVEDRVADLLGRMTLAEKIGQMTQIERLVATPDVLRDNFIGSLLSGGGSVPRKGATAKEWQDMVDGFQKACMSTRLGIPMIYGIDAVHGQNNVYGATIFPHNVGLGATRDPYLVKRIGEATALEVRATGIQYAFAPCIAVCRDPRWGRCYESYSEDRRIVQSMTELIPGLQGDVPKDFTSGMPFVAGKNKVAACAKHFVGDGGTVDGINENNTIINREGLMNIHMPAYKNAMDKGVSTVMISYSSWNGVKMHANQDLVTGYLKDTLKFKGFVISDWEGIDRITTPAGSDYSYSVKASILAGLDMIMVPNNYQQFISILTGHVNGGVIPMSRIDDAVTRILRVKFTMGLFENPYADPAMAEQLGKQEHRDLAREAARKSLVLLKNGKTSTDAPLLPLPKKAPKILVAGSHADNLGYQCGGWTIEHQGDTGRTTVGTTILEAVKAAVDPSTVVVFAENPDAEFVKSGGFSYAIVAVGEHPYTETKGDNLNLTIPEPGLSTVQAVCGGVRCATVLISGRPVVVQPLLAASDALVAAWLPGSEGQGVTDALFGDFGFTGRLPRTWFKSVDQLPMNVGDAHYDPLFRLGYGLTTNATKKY
Procedure: as §1

[10] = molecular target: T1, WT HvExoI; experiment: as above; assay type: biochemical; conditions: substance is the substrate, HvExoI at 50 pmoles, nd = activity not detected
Procedure: as §1

[11] = molecular target: HvExoI; set-up: method as in PMID 8617814; conditions: transition state analogue; previous observations; cited from earlier work
[12] = molecular target: T3, HvExoI W286F/W434F mutant (Hordeum vulgare, UniProt Q9XEI3, W311F/W459F); experiment: Relative rates of hydrolysis of poly-, oligosaccharides and aryl-glycosides; assay type: biochemical; conditions: substance is the substrate, nd = activity not detected
T3 sequence (Q9XEI3 26-630 W311F/W459F): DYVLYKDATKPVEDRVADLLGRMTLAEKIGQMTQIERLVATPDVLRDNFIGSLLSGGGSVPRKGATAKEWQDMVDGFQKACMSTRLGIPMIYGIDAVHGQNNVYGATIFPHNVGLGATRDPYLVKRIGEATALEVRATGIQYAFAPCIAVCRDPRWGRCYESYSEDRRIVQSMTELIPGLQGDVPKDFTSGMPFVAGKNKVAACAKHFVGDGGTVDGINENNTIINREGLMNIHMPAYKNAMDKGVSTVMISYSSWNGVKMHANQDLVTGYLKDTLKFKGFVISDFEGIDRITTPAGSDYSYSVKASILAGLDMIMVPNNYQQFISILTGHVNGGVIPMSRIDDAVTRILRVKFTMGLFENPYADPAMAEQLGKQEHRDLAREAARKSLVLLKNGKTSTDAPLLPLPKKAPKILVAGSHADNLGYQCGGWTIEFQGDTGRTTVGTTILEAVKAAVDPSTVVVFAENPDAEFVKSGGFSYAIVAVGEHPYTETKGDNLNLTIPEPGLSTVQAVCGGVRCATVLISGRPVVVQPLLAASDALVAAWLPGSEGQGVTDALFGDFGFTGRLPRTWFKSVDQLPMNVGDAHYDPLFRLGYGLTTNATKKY
Procedure: as §1

[13] = substrate: O=[N+]([O-])c1ccc(O[C@@H]2O[C@H](CO)[C@@H](O)[C@H](O)[C@H]2O)cc1; experiment: Steady-state apparent kinetic constants with substrates; assay type: biochemical, Hordeum vulgare; conditions: substance is the substrate, pH 5.25, 30.0 °C
[14] = substrate: OC[C@H]1O[C@@H](O[C@H]2[C@H](O)[C@@H](CO)OC(O)[C@@H]2O)[C@H](O)[C@@H](O)[C@@H]1O; experiment: as above; assay type: biochemical, Hordeum vulgare; conditions: substance is the substrate, pH 5.25, 30.0 °C

T1 sequence (Q9XEI3 entry or part of it): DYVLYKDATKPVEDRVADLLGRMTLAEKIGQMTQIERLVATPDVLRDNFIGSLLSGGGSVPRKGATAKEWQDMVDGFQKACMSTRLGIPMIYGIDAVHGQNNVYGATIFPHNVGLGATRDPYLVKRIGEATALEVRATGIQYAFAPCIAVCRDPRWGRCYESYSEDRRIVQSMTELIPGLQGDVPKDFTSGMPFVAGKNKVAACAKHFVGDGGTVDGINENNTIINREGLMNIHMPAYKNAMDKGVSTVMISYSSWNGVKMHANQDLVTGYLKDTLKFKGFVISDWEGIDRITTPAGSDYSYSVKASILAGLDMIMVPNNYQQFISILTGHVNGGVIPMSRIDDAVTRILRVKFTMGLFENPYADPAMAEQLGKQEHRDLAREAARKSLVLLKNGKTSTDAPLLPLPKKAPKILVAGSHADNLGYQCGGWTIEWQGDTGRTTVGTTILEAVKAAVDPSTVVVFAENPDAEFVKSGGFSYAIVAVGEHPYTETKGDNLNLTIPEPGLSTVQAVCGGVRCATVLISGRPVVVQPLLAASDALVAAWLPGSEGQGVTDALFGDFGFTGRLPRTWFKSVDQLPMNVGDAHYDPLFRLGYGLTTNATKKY
Chain of Native HvExoI (Q9XEI3 entry or part of it): as above

## 4-nitrophenyl 3-thio-laminaribioside [4NP-G3SG]
[1]
  ΔG: -4.37 kcal/mol
[2]; Recombinant WT
  ΔG: -4.37 kcal/mol
[2]
  type of inhibition: competitive inhibition
[3]
  ΔG: -3.75 kcal/mol
[4]
  ΔG: -4.37 kcal/mol
[5]
  ΔG: -3.92 kcal/mol
[6]
  ΔG: -4.11 kcal/mol
[7]
  ΔG: -3.61 kcal/mol
[8]
  ΔG: -3.75 kcal/mol

## O=[N+]([O-])c1ccc(O[C@@H]2O[C@H](CO)[C@@H](O[C@@H]3O[C@H](CO)[C@@H](O)[C@H](O)[C@H]3O)[C@H](O)[C@H]2O)cc1 [4NP-cellobioside]
[9]
  Activity (relative rate of hydrolysis): 0.04 ± 0.001 μmole/min per mg protein
[10]
  Activity (relative rate of hydrolysis): 0.9 ± 0.01 μmole/min per mg protein

## O=C1O[C@H](CO)[C@@H](O)[C@H](O)[C@H]1O [D-glucono−1,5-lactone]
[11]
  Ki: 2.1 µM

## CO[C@@H]1O[C@H](CO)[C@@H](O)[C@H](O)[C@H]1S[C@@H]1O[C@H](CO)[C@@H](O)[C@H](O)[C@H]1O [G2SG-OMe, methyl 2-thio-β-sophoroside]
[1]
  ΔG: -3.75 kcal/mol
[2]; Recombinant WT
  ΔG: -3.32 kcal/mol

## CO[C@@H]1O[C@H](CO)[C@@H](S[C@@H]2O[C@H](CO)[C@@H](O)[C@H](O)[C@H]2O)[C@H](O)[C@H]1O [G4SG-OMe, methyl 4-thio-β-cellobioside]
[1]
  Ki: 1000 µM
  ΔG: -4.16 kcal/mol
[2]; Recombinant WT, apparent inhibition constant, 4NP-Glc substrate
  Ki: 1000 µM
[2]; Recombinant WT
  ΔG: -4.16 kcal/mol
[2]
  type of inhibition: competitive inhibition
[3]
  ΔG: -3.68 kcal/mol
[4]
  ΔG: -3.75 kcal/mol
[5]
  ΔG: -3.68 kcal/mol
[6]
  ΔG: -3.42 kcal/mol
[7]
  ΔG: -3.85 kcal/mol
[8]
  ΔG: -3.3 kcal/mol

## CO[C@@H]1O[C@H](CS[C@@H]2O[C@H](CO)[C@@H](O)[C@H](O)[C@H]2O)[C@@H](O)[C@H](O)[C@H]1O [G6SG-OMe, methyl 6-thio-β-gentiobioside]
[1]
  Ki: 100 µM
  ΔG: -5.54 kcal/mol
[2]; Recombinant WT
  ΔG: -5.09 kcal/mol
[2]
  type of inhibition: competitive inhibition
[3]
  ΔG: -4.88 kcal/mol
[4]
  ΔG: -5.14 kcal/mol
[6]
  fold higher Ki constant value compared to WT: 6 fold
  ΔG: -4.47 kcal/mol
[7]
  fold higher Ki constant value compared to WT: 8 fold
  ΔG: -4.3 kcal/mol
[8]
  ΔG: -4.88 kcal/mol

## lichenin
[12]
  Activity (relative rate of hydrolysis): 0.03 ± 0.001 μmole/min per mg protein
[9]
  Activity (relative rate of hydrolysis): 0.03 ± 0.01 μmole/min per mg protein
[10]
  Activity (relative rate of hydrolysis): 0.8 ± 0.1 μmole/min per mg protein

B1: HvExoI W434Y mutant (Hordeum vulgare subsp. vulgare; W459Y) (protein)
chain: DYVLYKDATKPVEDRVADLLGRMTLAEKIGQMTQIERLVATPDVLRDNFIGSLLSGGGSVPRKGATAKEWQDMVDGFQKACMSTRLGIPMIYGIDAVHGQNNVYGATIFPHNVGLGATRDPYLVKRIGEATALEVRATGIQYAFAPCIAVCRDPRWGRCYESYSEDRRIVQSMTELIPGLQGDVPKDFTSGMPFVAGKNKVAACAKHFVGDGGTVDGINENNTIINREGLMNIHMPAYKNAMDKGVSTVMISYSSWNGVKMHANQDLVTGYLKDTLKFKGFVISDWEGIDRITTPAGSDYSYSVKASILAGLDMIMVPNNYQQFISILTGHVNGGVIPMSRIDDAVTRILRVKFTMGLFENPYADPAMAEQLGKQEHRDLAREAARKSLVLLKNGKTSTDAPLLPLPKKAPKILVAGSHADNLGYQCGGWTIEYQGDTGRTTVGTTILEAVKAAVDPSTVVVFAENPDAEFVKSGGFSYAIVAVGEHPYTETKGDNLNLTIPEPGLSTVQAVCGGVRCATVLISGRPVVVQPLLAASDALVAAWLPGSEGQGVTDALFGDFGFTGRLPRTWFKSVDQLPMNVGDAHYDPLFRLGYGLTTNATKKY
[13]; other: W434Y
  Km: 300 ± 30 µM
  kcat: 1.2 ± 0.1 s⁻¹
  kcat/Km: 3500 ± 400 M⁻¹ s⁻¹
[14]; other: W434Y
  Km: 600 ± 100 µM
  kcat: 2.0 ± 0.1 s⁻¹
  kcat/Km: 3300 ± 300 M⁻¹ s⁻¹

B2: HvExoI W286F/W434F mutant (Hordeum vulgare subsp. vulgare; W311F/W459F) (protein)
chain: DYVLYKDATKPVEDRVADLLGRMTLAEKIGQMTQIERLVATPDVLRDNFIGSLLSGGGSVPRKGATAKEWQDMVDGFQKACMSTRLGIPMIYGIDAVHGQNNVYGATIFPHNVGLGATRDPYLVKRIGEATALEVRATGIQYAFAPCIAVCRDPRWGRCYESYSEDRRIVQSMTELIPGLQGDVPKDFTSGMPFVAGKNKVAACAKHFVGDGGTVDGINENNTIINREGLMNIHMPAYKNAMDKGVSTVMISYSSWNGVKMHANQDLVTGYLKDTLKFKGFVISDFEGIDRITTPAGSDYSYSVKASILAGLDMIMVPNNYQQFISILTGHVNGGVIPMSRIDDAVTRILRVKFTMGLFENPYADPAMAEQLGKQEHRDLAREAARKSLVLLKNGKTSTDAPLLPLPKKAPKILVAGSHADNLGYQCGGWTIEFQGDTGRTTVGTTILEAVKAAVDPSTVVVFAENPDAEFVKSGGFSYAIVAVGEHPYTETKGDNLNLTIPEPGLSTVQAVCGGVRCATVLISGRPVVVQPLLAASDALVAAWLPGSEGQGVTDALFGDFGFTGRLPRTWFKSVDQLPMNVGDAHYDPLFRLGYGLTTNATKKY
[13]; other: W286F/W434F
  Km: 600 ± 100 µM
  kcat: 0.7 ± 0.02 s⁻¹
  kcat/Km: 1200 ± 200 M⁻¹ s⁻¹
[14]; other: W286F/W434F
  Km: 200 ± 20 µM
  kcat: 0.5 ± 0.04 s⁻¹
  kcat/Km: 3000 ± 600 M⁻¹ s⁻¹

B3: HvExoI W286F/W434A mutant (Hordeum vulgare subsp. vulgare; W311F/W459A) (protein)
chain: DYVLYKDATKPVEDRVADLLGRMTLAEKIGQMTQIERLVATPDVLRDNFIGSLLSGGGSVPRKGATAKEWQDMVDGFQKACMSTRLGIPMIYGIDAVHGQNNVYGATIFPHNVGLGATRDPYLVKRIGEATALEVRATGIQYAFAPCIAVCRDPRWGRCYESYSEDRRIVQSMTELIPGLQGDVPKDFTSGMPFVAGKNKVAACAKHFVGDGGTVDGINENNTIINREGLMNIHMPAYKNAMDKGVSTVMISYSSWNGVKMHANQDLVTGYLKDTLKFKGFVISDFEGIDRITTPAGSDYSYSVKASILAGLDMIMVPNNYQQFISILTGHVNGGVIPMSRIDDAVTRILRVKFTMGLFENPYADPAMAEQLGKQEHRDLAREAARKSLVLLKNGKTSTDAPLLPLPKKAPKILVAGSHADNLGYQCGGWTIEAQGDTGRTTVGTTILEAVKAAVDPSTVVVFAENPDAEFVKSGGFSYAIVAVGEHPYTETKGDNLNLTIPEPGLSTVQAVCGGVRCATVLISGRPVVVQPLLAASDALVAAWLPGSEGQGVTDALFGDFGFTGRLPRTWFKSVDQLPMNVGDAHYDPLFRLGYGLTTNATKKY
[13]; other: W286F/W434A
  Km: 700 ± 40 µM
  kcat: 1.9 ± 0.1 s⁻¹
  kcat/Km: 2500 ± 200 M⁻¹ s⁻¹
[14]; other: W286F/W434A
  Km: 700 ± 200 µM
  kcat: 0.2 ± 0.02 s⁻¹
  kcat/Km: 200 ± 30 M⁻¹ s⁻¹
